From ChEMBL document CHEMBL1201862, “PubChem BioAssay data set” (2004)
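Results reflect a 48-hour exposure of cells in 96-well plates to compound at five concentrations. GI50: concentration for 50% inhibition of growth.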 Active and inactive are the calls of the source. Rule as the data show it: active = GI50 up to about 1.1 µM and inactive = higher.

Legend:
Test in all cases: growth of human tumour cells (NCI), 48 h
786-0 = test system: 786-0
A498 = test system: A498
A549 = test system: A549
ACHN = test system: ACHN
CAKI-1 = test system: CAKI-1
CCRF-CEM = test system: CCRF-CEM
COLO 205 = test system: COLO 205
DLD-1 = test system: DLD-1
DMS-114 = test system: DMS-114
DMS-273 = test system: DMS-273
EKVX = test system: EKVX
HCC 2998 = test system: HCC 2998
HCT-116 = test system: HCT-116
HCT-15 = test system: HCT-15
HL-60 = test system: HL-60
HOP-18 = test system: HOP-18
HOP-62 = test system: HOP-62
HOP-92 = test system: HOP-92
HT-29 = test system: HT-29
IGROV-1 = test system: IGROV-1
K562 = test system: K562
KM-20L2 = test system: KM-20L2
KM12 = test system: KM12
LOX IMVI = test system: LOX IMVI
LXFL 529 = test system: LXFL 529
M14 = test system: M14
M19-MEL = test system: M19-MEL
MOLT-4 = test system: MOLT-4
Malme-3M = test system: Malme-3M
NCI-H226 = test system: NCI-H226
NCI-H23 = test system: NCI-H23
NCI-H460 = test system: NCI-H460
NCI-H522 = test system: NCI-H522
OVCAR-3 = test system: OVCAR-3
OVCAR-4 = test system: OVCAR-4
OVCAR-5 = test system: OVCAR-5
OVCAR-8 = test system: OVCAR-8
RPMI-8226 = test system: RPMI-8226
RXF 393 = test system: RXF 393
RXF 631 = test system: RXF 631
SF-268 = test system: SF-268
SF-295 = test system: SF-295
SF-539 = test system: SF-539
SK-MEL-28 = test system: SK-MEL-28
SK-MEL-2 = test system: SK-MEL-2
SK-MEL-5 = test system: SK-MEL-5
SK-OV-3 = test system: SK-OV-3
SN12C = test system: SN12C
SNB-19 = test system: SNB-19
SNB-75 = test system: SNB-75
SNB-78 = test system: SNB-78
SR = test system: SR
SW-620 = test system: SW-620
TK-10 = test system: TK-10
U-251 = test system: U-251
UACC-257 = test system: UACC-257
UACC-62 = test system: UACC-62
UO-31 = test system: UO-31
XF498 = test system: XF498

## N#C/C(=C\c1c(Cl)cccc1Cl)c1ccccc1
786-0
  GI50: 4.92 µM (inactive)
A498
  GI50: 3.13 µM (inactive)
A549
  GI50: 7.8 µM (inactive)
ACHN
  GI50: 7.59 µM (inactive)
CAKI-1
  GI50: 8.47 µM (inactive)
CCRF-CEM
  GI50: 2.88 µM (inactive)
COLO 205
  GI50: 2.4 µM (inactive)
DLD-1
  GI50: 5.18 µM (inactive)
DMS-114
  GI50: 12.4 µM (inactive)
DMS-273
  GI50: 3.35 µM (inactive)
EKVX
  GI50: 18.3 µM (inactive)
HCC 2998
  GI50: > 39.2 µM (inactive)
HCT-116
  GI50: 4.36 µM (inactive)
HCT-15
  GI50: 4.16 µM
HL-60
  GI50: 3.6 µM (inactive)
HOP-18
  GI50: > 50.1 µM (inactive)
HOP-62
  GI50: 3.83 µM (inactive)
HOP-92
  GI50: 8.49 µM (inactive)
HT-29
  GI50: 4.19 µM (inactive)
IGROV-1
  GI50: 9.29 µM (inactive)
K562
  GI50: 3.15 µM (inactive)
KM-20L2
  GI50: 3.85 µM (inactive)
KM12
  GI50: 4.86 µM (inactive)
LOX IMVI
  GI50: 18.7 µM (inactive)
LXFL 529
  GI50: 33.7 µM (inactive)
M14
  GI50: 6.4 µM (inactive)
M19-MEL
  GI50: 8.57 µM (inactive)
MOLT-4
  GI50: 4.73 µM (inactive)
Malme-3M
  GI50: 10.2 µM (inactive)
NCI-H226
  GI50: > 22.9 µM (inactive)
NCI-H23
  GI50: 14.9 µM (inactive)
NCI-H460
  GI50: 4.69 µM (inactive)
NCI-H522
  GI50: 14.2 µM (inactive)
OVCAR-3
  GI50: 3.8 µM (inactive)
OVCAR-4
  GI50: 20.1 µM (inactive)
OVCAR-5
  GI50: > 77.4 µM (inactive)
OVCAR-8
  GI50: 16.4 µM (inactive)
RPMI-8226
  GI50: 5.48 µM (inactive)
RXF 393
  GI50: 6.12 µM (inactive)
RXF 631
  GI50: 7.23 µM (inactive)
SF-268
  GI50: 18.5 µM (inactive)
SF-295
  GI50: 4.43 µM (inactive)
SF-539
  GI50: 2.72 µM (inactive)
SK-MEL-28
  GI50: 6.92 µM (inactive)
SK-MEL-2
  GI50: 5.78 µM (inactive)
SK-MEL-5
  GI50: 5.51 µM (inactive)
SK-OV-3
  GI50: 6.11 µM (inactive)
SN12C
  GI50: 9.82 µM (inactive)
SNB-19
  GI50: 3.66 µM (inactive)
SNB-75
  GI50: 2.97 µM (inactive)
SNB-78
  GI50: 11.1 µM (inactive)
SR
  GI50: 2.63 µM (inactive)
SW-620
  GI50: 2.74 µM (inactive)
TK-10
  GI50: 15.8 µM (inactive)
U-251
  GI50: 4.39 µM (inactive)
UACC-257
  GI50: 8.65 µM (inactive)
UACC-62
  GI50: 4.88 µM (inactive)
UO-31
  GI50: 17.7 µM (inactive)
XF498
  GI50: 8.13 µM (inactive)
